The record followed here is ChEMBL document CHEMBL1133047, “Synthesis of neurotensin(9-13) analogues exhibiting enhanced human neurotensin receptor binding affinities” (Bioorg Med Chem Lett, 2000).

Where a SMILES comes first, the peptide text is derived from it. The star is where a group is joined. X1 = [N-]=[N+]=N[C@@H](CCCNCCN1CCNCC1)C(=O)*; X5 = [N-]=[N+]=N[C@@H](CCCNCCNCCN)C(=O)*; X2 = [N-]=[N+]=N[C@@H](CCCNCCCCN)C(=O)*; X4 = [N-]=[N+]=N[C@@H](CCCNCCCN)C(=O)*; X3 = [N-]=[N+]=N[C@@H](CCCNCCN)C(=O)*

Sequence of Neurotensin receptor type 1 (P30989 whole entry): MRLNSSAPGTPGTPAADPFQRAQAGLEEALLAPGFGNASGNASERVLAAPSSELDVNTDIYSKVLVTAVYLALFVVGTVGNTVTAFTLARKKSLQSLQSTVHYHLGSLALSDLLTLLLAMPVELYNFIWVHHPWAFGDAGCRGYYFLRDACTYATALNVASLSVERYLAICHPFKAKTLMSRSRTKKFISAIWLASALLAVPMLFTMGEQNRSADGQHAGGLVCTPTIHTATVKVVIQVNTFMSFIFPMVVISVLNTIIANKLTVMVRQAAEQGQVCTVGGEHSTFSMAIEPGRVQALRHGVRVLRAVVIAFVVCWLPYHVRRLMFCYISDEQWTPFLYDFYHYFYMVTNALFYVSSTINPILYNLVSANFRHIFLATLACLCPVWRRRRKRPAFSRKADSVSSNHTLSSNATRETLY

This experiment concerns the target Neurotensin receptor type 1 (Homo sapiens, UniProt P30989). The experiment in a line: Compound was evaluated for the binding affinity against human neurotensin receptor (hNTR)-1 expressed in CHO cells. It is filed as cell-based.
On to `CC[C@H](C)[C@H](NC(=O)[C@H](Cc1ccc(O)cc1)NC(=O)[C@@H]1CCCN1C(=O)[C@H](CCCNCCN)N=[N+]=[N-])C(=O)N[C@@H](CC(C)C)C(=O)O` (X3-PYIL-OH), for which the IC50 (as a rule, the point on the concentration scale where inhibition reaches its midpoint) amounted to 14.7 nM.
Consider `CC[C@H](C)[C@H](NC(=O)[C@H](Cc1ccc(O)cc1)NC(=O)[C@@H]1CCCN1C(=O)[C@H](CCCN)NC(=O)[C@@H](N)CCCN)C(=O)N[C@@H](CC(C)C)C(=O)O`, for which the 50% inhibitory concentration (IC50) came to 1.3 nM. This IC50 lies about 11-fold lower than the previous one.
For the molecule `CC[C@H](C)[C@H](NC(=O)[C@H](Cc1ccc(O)cc1)NC(=O)[C@@H]1CCCN1C(=O)[C@H](CCCNCCNCCN)N=[N+]=[N-])C(=O)N[C@@H](CC(C)C)C(=O)O` (X5-PYIL-OH), the IC50 is 8.8 nM.
With `CC[C@H](C)[C@H](NC(=O)[C@H](Cc1ccc(O)cc1)NC(=O)[C@@H]1CCCN1C(=O)[C@H](CCCNCCCN)N=[N+]=[N-])C(=O)N[C@@H](CC(C)C)C(=O)O` (X4-PYIL-OH), the IC50 turned out to be 3.9 nM.
The same measure for `CC[C@H](C)[C@H](NC(=O)[C@H](Cc1ccc(O)cc1)NC(=O)[C@@H]1CCCN1C(=O)[C@H](CCCNCCN1CCNCC1)N=[N+]=[N-])C(=O)N[C@@H](CC(C)C)C(=O)O` (X1-PYIL-OH): 28 nM.
In turn, `CC[C@H](C)[C@H](NC(=O)[C@H](Cc1ccc(O)cc1)NC(=O)[C@@H]1CCCN1C(=O)[C@@H](N)CCCNC(=N)N)C(=O)N[C@@H](CC(C)C)C(=O)O` gave a half-inhibitory concentration (IC50) of 19 nM.
In turn, `CC[C@H](C)[C@H](NC(=O)[C@H](Cc1ccc(O)cc1)NC(=O)[C@@H]1CCCN1C(=O)[C@H](CCCNCCCCN)N=[N+]=[N-])C(=O)N[C@@H](CC(C)C)C(=O)O` (X2-PYIL-OH) displayed an IC50 of 9.3 nM.
